16 compounds from ChEMBL document CHEMBL4130368, “Thienopyrimidine derivatives exert their anticancer efficacy via apoptosis induction, oxidative stress and mitotic catastrophe” (Eur J Med Chem, 2017) can be followed below.

For one assay, the system named is U-251. Kind of assay: Antiproliferative activity against human U251 cells after 24 hrs by MTT assay. The assay is classed as functional, cell-based. The conditions noted are these: U-251, 24 h.
The next assay concerns NCI-H460. Put plainly: Antiproliferative activity against human NCI-H460 cells after 24 hrs by MTT assay. The conditions noted are these: NCI-H460, 24 h. It is filed as functional, cell-based.
The next assay has as its system A549. Put plainly: Antiproliferative activity against human A549 cells after 24 hrs by MTT assay. It is filed as functional, cell-based. Conditions: A549, 24 h.
For a further assay, the system named is KB. Kind of assay: Antiproliferative activity against human KB cells by MTT assay. The assay is classed as functional, cell-based.
The subject of a further assay is HCT-116. Put plainly: Antiproliferative activity against human HCT116 cells after 72 hrs by MTT assay. The assay is classed as functional, cell-based. Conditions: HCT-116, 72 h.
A further assay has as its system HCT-15. Put plainly: Antiproliferative activity against human HCT15 cells after 72 hrs by MTT assay. The assay is classed as functional, cell-based. The conditions noted are these: HCT-15, 72 h.
The next assay has as its system LN-229. Put plainly: Antiproliferative activity against human LN229 cells after 72 hrs by MTT assay. It is filed as functional, cell-based. Conditions: LN-229, 72 h.
A further assay has as its system A2780. Put plainly: Antiproliferative activity against human A2780 cells after 72 hrs by MTT assay. It is filed as functional, cell-based. Conditions: A2780, 72 h.
The nature of assay [1]: Antiproliferative activity against human GBM10 cells after 72 hrs by MTT assay. It is filed as functional, cell-based. The conditions noted are these: GBM10, 72 h.
The next assay deals with CHO. Put plainly: Cytotoxicity against CHO cells assessed as reduction in cell survival after 72 hrs by MTT assay. It is filed as ADME, cell-based. The conditions noted are these: Cricetulus griseus.
The next assay deals with HepG2. Kind of assay: Antiproliferative activity against human HepG2 cells after 72 hrs by MTT assay. Conditions: HepG2, 72 h. The assay is classed as functional, cell-based.
Another assay relates to PC-3. Put plainly: Antiproliferative activity against human PC3 cells after 72 hrs by MTT assay. The assay is classed as functional, cell-based. The conditions noted are these: PC-3, 72 h.

SMILES strings stand for the structures. pIC50: −log10 of the molar value. Where only a bound is given, the exact number is not on record here.

In the case of `Nc1nc(NNC(=O)c2ccncc2)nc2sc3c(c12)CCCC3`, the pIC50 is 4.88 with U-251, 5.11 in the assay with NCI-H460 and 4.72 with A549.

As for `CCCCOc1nc2sc3c(c2c(=O)n1Cc1ccccc1)CCCC3`, the pIC50 in the assay with KB was 4.72.

Turning to `Oc1nc(-c2ccccc2)nc2sc3c(c12)CCCC3`, the pIC50 in the assay on HCT-116 was 5.08; with HCT-15, 5.32; in the assay on LN-229 it was 4.74; in the assay on A2780, under 4.00; in [1], 4.92; in the assay with CHO it was under 4.00.

Take `O=c1[nH]c(-c2ccc(Cl)cc2Cl)nc2sc3c(c12)CCCC3`: the pIC50 in the assay with HCT-116 was 4.11; in the assay on HCT-15, 4.04; with LN-229, 4.05; in the assay on A2780, 4.54; in assay [1] it was 4.00; with CHO, under 4.00.

For the compound `Cc1ccc(-c2nc(O)c3c4c(sc3n2)CCCC4)cc1`, the pIC50 in the assay on HCT-116 is under 4.00; in the assay on HCT-15 it was under 4.00; with LN-229 it was 4.00; in the assay on A2780 it was 4.06; in assay [1], 4.16; in the assay on CHO, under 4.00.

In the case of `COc1cccc(-c2nc3sc4c(c3c(=O)[nH]2)CCCC4)c1`, the pIC50 in the assay with HCT-116 was under 4.00; in the assay with HCT-15 it was under 4.00; in the assay with LN-229, under 4.00; in the assay with A2780 it was 5.02; in [1], under 4.00; in the assay with CHO it was under 4.00.

With `O=c1c2c3c(sc2ncn1Cc1ccc(Br)cc1)CCCC3`, the pIC50 in the assay on HepG2 was 4.83.

For `N#Cc1ccc(-c2nc3sc4c(c3c(=O)[nH]2)CCCC4)cc1`, the pIC50 (in the assay with HCT-116; in the assay on HCT-15; with LN-229; in the assay with A2780; in assay [1]; in the assay with CHO) was under 4.00 throughout.

Regarding `COc1ccc(-c2nc(O)c3c4c(sc3n2)CCCC4)cc1OC`, the pIC50 is 4.71 in the assay on HCT-116; 4.96 in the assay with HCT-15; 4.84 in the assay with LN-229; 5.72 in the assay on A2780; 4.90 in assay [1]; under 4.00 in the assay with CHO.

As to `Oc1nc(-c2ccc(Cl)cc2)nc2sc3c(c12)CCCC3`, the pIC50 in the assay with HCT-116 is 4.47; with HCT-15, 4.72; in the assay on LN-229 it was 4.47; with A2780, under 4.00; in assay [1], 4.48; in the assay with CHO, under 4.00.

In the case of `O=c1[nH]c(-c2cccc([N+](=O)[O-])c2)nc2sc3c(c12)CCCC3`, the pIC50 in the assay with HCT-116 was 5.55; in the assay on HCT-15, 5.72; in the assay on LN-229, 5.08; with A2780, 4.04; in assay [1] it was 4.90; with CHO, under 4.00.

As to `COc1cc(OC)cc(-c2nc(O)c3c4c(sc3n2)CCCC4)c1`, the pIC50 with HCT-116 was 4.65; in the assay on HCT-15, 4.58; with LN-229, 4.32; with A2780, 5.14; in assay [1], 4.38; in the assay on CHO it was under 4.00.

Consider `O=c1[nH]c(-c2ccc(F)cc2)nc2sc3c(c12)CCCC3`, for which the pIC50 in the assay with HCT-116 was 5.04; in the assay with HCT-15, 5.07; with LN-229, 4.77; in the assay on A2780 it was under 4.00; in assay [1], 4.84; in the assay on CHO, under 4.00.

In the case of `O=[N+]([O-])c1ccc(-c2nc(O)c3c4c(sc3n2)CCCC4)cc1`, the pIC50 was 4.15 in the assay on HCT-116; 4.18 in the assay with HCT-15; 4.35 in the assay with LN-229; under 4.00 with A2780; 4.29 in assay [1]; under 4.00 in the assay on CHO.

For the compound `COc1cccc(-c2nc3sc4c(c3c(=O)[nH]2)CCCC4)c1O`, the pIC50 was 4.47 with HCT-116; 4.48 in the assay with HCT-15; 4.31 in the assay on LN-229; under 4.00 with A2780; 4.23 in [1]; under 4.00 in the assay on CHO.

With `O=C(CSc1nc2sc3c(c2c(=O)n1Cc1ccccc1)CCCC3)NNC(=S)Nc1ccccc1`, the pIC50 in the assay on HCT-15 and in the assay on PC-3 was 5.27 throughout.
